Results published in patent publication US5380651A, “Method of determining odorant compounds and antagonists of odorants using a primary culture of olfactory neurons” (The Johns Hopkins University, priority 1993, dated 1995).
Entries after “also recorded” stand apart in the source; their conditions may differ.

Legend:
[1] = test system: Primary olfactory neurons; assay: cyclic AMP levels (RIA) in primary olfactory neurons exposed to odorant; assay type: cell-based, rat; conditions: 10 uM IBMP
Excerpt: Olfactory tissue from neonatal rats was collected, minced, dissociated in enzymes and plated on chamber slides pretreated with laminin as described below.
Approximately 3 litters or 28-32 pups were used per prep. The 2-3 day old rat pups were sacrificed by decapitation, and olfactory tissue dissected and immediately placed in modified Eagle's medium (MEM) containing 4.8 g/l of HEPES buffer, designated MEM-AIR. The turbinates were transferred twice through fresh MEM-AIR to minimize contamination. Tissue was then centrifuged at 700×g for 7 min. After the supernatant was decanted, the tissue was minced to achieve tissue fragments of approximately 1 mm in size, resuspended in MEM-AIR and centrifuged at 700×g for 7 min. Tissue was then placed in 30 ml of MEM-AIR containing 1% (w/v) BSA, RIA grade (Sigma, St. Louis, Mo.), 1 mg/ml hyaluronidase (Sigma), 50 ug/ml DNAse (Sigma), 1 mg/ml collagenase (Worthington Biochemicals, Freehold, N.J.), and 5 mg/ml dispase (Boehringer-Mannheim Biochemicals, Indianapolis, Ind.), and incubated with agitation for 1 hr at 37° C. At the end of incubation, the cell suspension was triturated 10 times with a 10 ml plastic piper and passed through a 150 micron wire mesh. The cell suspension was then centrifuged at 500×g for 5 min. […]

NG-108 cells = assay: cyclic AMP levels (RIA) in NG-108 cells exposed to odorant; assay type: cell-based; conditions: similar treatment
[2] = test system: olfactory neurons (primary cultures); assay: effect of substrate matrix substances on morphology and plating efficiency of olfactory neurons; assay type: cell-based, rat; conditions: for plating efficiency / process (neurite) outgrowth: coated slides, phase contrast and anti-vimentin immunofluorescence
Method: To determine the role of substrate matrix substances on plating efficiency and on cellular selection, a number of different substrates were tested.
Two chamber slides were pretreated in a number of ways. For laminin coating, 1 ml of MDV containing 25 ug/ml laminin was plated onto glass two-chamber slides overnight at 37° C.; before use, the slides were rinsed with MDV. For fibronectin, slides were treated with a solution containing 1 ml of MDV containing 20 ug/ml fibronectin (Collaborative Research), incubated overnight at 37° C., and rinsed with MDV prior to use. For polyornithine (PORN, Sigma Chemicals), a solution at a concentration of 1 mg/ml PORN in deionized distilled water was added to slides, incubated 1 hr at 37° C., rinsed twice with deionized distilled water, and rinsed once with MDV prior to use. When laminin was used on PORN-treated slides, slides were treated with PORN and then laminin in the usual manner. Coating of slides with poly-D-lysine was performed analogous to treatment with polyornithine. Heparan sulfate was diluted in MDV to a concentration of 10 ug/ml and 1 ml was placed on a slide, maintained overnight at 37° C., and rinsed with deionized distilled water prior to use. Collagen (Gibco) or collagen IV (Collaborative Research) was prepared as a 50 ug/ml solution in deionized distilled water and 1 ml of this solution utilized per slide. In the case of collagen, the solution was allowed to air dry. Collagen IV was maintained overnight at room temperature, aspirated, air dried and then rinsed twice with deionized distilled water prior to use. When laminin was used with collagen IV, collagen IV was prepared as described, and laminin was subsequently added in the usual manner. Matrigel (Collaborative Research) was utilized according to manufacturer's instructions.
Primary cultures were prepared as describe above and plated onto a number of different substrates and examined by phase contrast as well as immunofluorescence with antivimentin antisera (FIG. 6).
Matrigel was also examined as a substrate (FIG. 7).

[3] = test system: olfactory neurons (primary cultures); assay: effect of NGF on olfactory neuron survival and neurite extension; assay type: cell-based, rat
Method: Approximately 3 litters or 28-32 pups were used per prep. The 2-3 day old rat pups were sacrificed by decapitation, and olfactory tissue dissected and immediately placed in modified Eagle's medium (MEM) containing 4.8 g/l of HEPES buffer, designated MEM-AIR. The turbinates were transferred twice through fresh MEM-AIR to minimize contamination. Tissue was then centrifuged at 700×g for 7 min. After the supernatant was decanted, the tissue was minced to achieve tissue fragments of approximately 1 mm in size, resuspended in MEM-AIR and centrifuged at 700×g for 7 min. Tissue was then placed in 30 ml of MEM-AIR containing 1% (w/v) BSA, RIA grade (Sigma, St. Louis, Mo.), 1 mg/ml hyaluronidase (Sigma), 50 ug/ml DNAse (Sigma), 1 mg/ml collagenase (Worthington Biochemicals, Freehold, N.J.), and 5 mg/ml dispase (Boehringer-Mannheim Biochemicals, Indianapolis, Ind.), and incubated with agitation for 1 hr at 37° C. At the end of incubation, the cell suspension was triturated 10 times with a 10 ml plastic piper and passed through a 150 micron wire mesh. The cell suspension was then centrifuged at 500×g for 5 min. The supernatant was aspirated and the cell pellet resuspended in plating medium composed of modified Eagle's medium containing D-valine (MDV, Gibco, Grand Island, N.Y.) containing 15% (v/v) dialyzed fetal calf serum (dFCS, Gibco), 5% (v/v) NU serum (Collaborative Research, Bedford, Mass.), 10 uM cytosine arabinoside (ara C) and 25 ng/ml nerve growth factor (NGF, Collaborative Research). After resuspension, cells were successively filtered through 50 micron and 10 micron nylon mesh filters (Small Parts, Miami, Fla.), to remove any remaining undigested clumps of cells and epithelial cells. Cells were plated at a density of 1×10^6 cells per cm^2 into tissue culture dish (Falcon, Lincoln Park, N.J.) or Labtek tissue culture slides (Nunc, Naperville, Ill.) coated with MDV containing laminin at 25 ug/ml (Collaborative Research). Cultures were placed in a humidified 37° C. incubator receiving 5% CO2. […]

[4] = without NGF vs 25 ng/ml NGF, by 3 days in culture

In the case of `COc1nccnc1CC(C)C` [IBMP, 2-isobutyl-3-methoxypyrazine], the “change of intracellular cyclic AMP levels” value [1] is reported as “rapid, transient rise in intracellular cyclic AMP levels” and the “change of cyclic AMP levels” value (NG-108 cells) is reported as “does not alter cyclic AMP levels”.

With collagen the “plating efficiency” value [2] was “somewhat better plating efficiency than poly-D-lysine, polyornithine or heparan-sulfate” and the “process (neurite) outgrowth” value [2] was “process outgrowth is still stunted”.

In the case of fibronectin, the “process (neurite) outgrowth” value [2] is reported as “the processes are shorter”.

In the case of laminin, the “plating efficiency” value [2] is reported as “optimal plating efficiency” and the “neurite extension and aggregation of cells” value ([2]; duplicate cell suspensions, laminin vs matrigel) is reported as “cells extend neurites in a random fashion, with no tendency to reaggregate”.

B1: NGF: nerve growth factor (NGF, Collaborative Research) (protein, UniProt P01139 122-241, looked up)
Beta-nerve growth factor: SSTHPVFHMGEFSVCDSVSVWVGDKTTATDIKGKEVTVLAEVNINNSVFRQYFFETKCRASNPVESGCRGIDSKHWNSYCTTTHTFVKALTTDEKQAAWRFIRIDTACVCVLSRKATRRG
modifications: Beta-nerve growth factor
For B1, the “role in olfactory neuronal survival and neurite extension” value ([3]; 25 ng/ml NGF in medium) was “necessary for survival of olfactory neurons; also recorded: affects both olfactory neuronal survival and neurite extension in culture”, the “decrease of cell viability in cells maintained without NGF” value [3, 4] was “approximately 85%” and the “process extension in cells maintained without NGF” value [3, 4] was “lose process extension”.
